Laboratory results as given in ChEMBL document CHEMBL1201862, “PubChem BioAssay data set” (2004).
Calls of active or inactive are those of the source.

Assays:
[1] = M. tuberculosis H37Rv growth inhibitors, H37Rv strain (AID 1626); format: functional
Leucine aminopeptidase = molecular target: T1, Leucine aminopeptidase (Plasmodium falciparum 3D7, UniProt Q8IL11); assay: P. falciparum M17LAP inhibitors, primary screen, biochemical, fluorogenic H-Leu-NHMec substrate, 1536-well (AID 1619); format: functional
T1 sequence (Q8IL11 whole entry): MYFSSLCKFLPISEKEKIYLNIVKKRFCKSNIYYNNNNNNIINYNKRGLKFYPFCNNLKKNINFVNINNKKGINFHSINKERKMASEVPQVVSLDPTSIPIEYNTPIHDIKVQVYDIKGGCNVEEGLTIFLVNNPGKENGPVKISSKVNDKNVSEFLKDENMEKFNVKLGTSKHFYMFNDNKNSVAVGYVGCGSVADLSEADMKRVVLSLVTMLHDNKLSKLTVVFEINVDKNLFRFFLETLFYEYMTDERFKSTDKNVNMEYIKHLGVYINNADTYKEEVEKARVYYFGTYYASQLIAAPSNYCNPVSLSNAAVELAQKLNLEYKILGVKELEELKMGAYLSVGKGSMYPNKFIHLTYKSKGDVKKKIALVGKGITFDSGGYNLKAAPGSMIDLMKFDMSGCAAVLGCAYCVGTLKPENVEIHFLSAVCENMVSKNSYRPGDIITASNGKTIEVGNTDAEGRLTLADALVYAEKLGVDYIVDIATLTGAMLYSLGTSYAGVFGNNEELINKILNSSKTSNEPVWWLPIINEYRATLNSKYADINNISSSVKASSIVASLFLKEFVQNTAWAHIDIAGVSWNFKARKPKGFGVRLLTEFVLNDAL

[2] = molecular target: T2, Histone-lysine N-methyltransferase NSD2 (Homo sapiens, UniProt O96028); format: biochemical
T2 sequence (O96028 whole entry): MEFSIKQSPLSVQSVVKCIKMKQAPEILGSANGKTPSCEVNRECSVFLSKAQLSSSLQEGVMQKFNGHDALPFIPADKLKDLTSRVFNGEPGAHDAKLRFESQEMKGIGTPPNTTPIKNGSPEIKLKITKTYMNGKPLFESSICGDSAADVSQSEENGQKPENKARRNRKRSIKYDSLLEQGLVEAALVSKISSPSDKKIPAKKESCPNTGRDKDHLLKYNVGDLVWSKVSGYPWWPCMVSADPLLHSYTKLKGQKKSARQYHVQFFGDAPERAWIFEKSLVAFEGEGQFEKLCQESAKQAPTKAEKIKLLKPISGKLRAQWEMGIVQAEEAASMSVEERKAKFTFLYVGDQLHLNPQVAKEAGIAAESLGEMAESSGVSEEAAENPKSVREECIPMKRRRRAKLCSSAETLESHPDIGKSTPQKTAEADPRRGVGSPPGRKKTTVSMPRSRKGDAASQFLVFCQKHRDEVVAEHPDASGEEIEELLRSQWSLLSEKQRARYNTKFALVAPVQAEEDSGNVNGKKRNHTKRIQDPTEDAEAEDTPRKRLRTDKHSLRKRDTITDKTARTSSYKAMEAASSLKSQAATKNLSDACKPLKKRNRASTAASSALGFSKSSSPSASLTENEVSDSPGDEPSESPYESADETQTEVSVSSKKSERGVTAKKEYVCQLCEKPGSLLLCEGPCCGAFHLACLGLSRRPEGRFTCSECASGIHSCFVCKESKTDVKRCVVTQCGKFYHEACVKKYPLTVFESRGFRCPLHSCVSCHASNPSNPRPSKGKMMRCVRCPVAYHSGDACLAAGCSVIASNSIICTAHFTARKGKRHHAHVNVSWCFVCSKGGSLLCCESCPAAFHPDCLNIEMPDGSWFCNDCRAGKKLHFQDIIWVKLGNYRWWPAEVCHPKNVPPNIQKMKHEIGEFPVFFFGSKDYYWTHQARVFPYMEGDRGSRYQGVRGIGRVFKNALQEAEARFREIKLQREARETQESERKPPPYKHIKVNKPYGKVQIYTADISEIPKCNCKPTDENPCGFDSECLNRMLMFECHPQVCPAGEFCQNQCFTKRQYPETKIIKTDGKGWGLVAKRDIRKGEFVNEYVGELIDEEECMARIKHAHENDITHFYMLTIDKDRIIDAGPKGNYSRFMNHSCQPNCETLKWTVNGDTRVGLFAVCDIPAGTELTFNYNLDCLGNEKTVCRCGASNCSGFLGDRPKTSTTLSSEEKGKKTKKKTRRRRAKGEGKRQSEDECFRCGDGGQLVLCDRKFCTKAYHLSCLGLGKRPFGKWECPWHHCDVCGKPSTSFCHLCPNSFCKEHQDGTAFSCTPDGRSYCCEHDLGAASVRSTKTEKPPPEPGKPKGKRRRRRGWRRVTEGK

Galanin receptor type 3 = molecular target: T3, Galanin receptor type 3 (Homo sapiens, UniProt O60755); assay: Fluorescence-based cell-based primary high throughput dose response assay to identify antagonists of the Galanin Receptor 3 (GalR3).; format: functional
T3 sequence (O60755 whole entry): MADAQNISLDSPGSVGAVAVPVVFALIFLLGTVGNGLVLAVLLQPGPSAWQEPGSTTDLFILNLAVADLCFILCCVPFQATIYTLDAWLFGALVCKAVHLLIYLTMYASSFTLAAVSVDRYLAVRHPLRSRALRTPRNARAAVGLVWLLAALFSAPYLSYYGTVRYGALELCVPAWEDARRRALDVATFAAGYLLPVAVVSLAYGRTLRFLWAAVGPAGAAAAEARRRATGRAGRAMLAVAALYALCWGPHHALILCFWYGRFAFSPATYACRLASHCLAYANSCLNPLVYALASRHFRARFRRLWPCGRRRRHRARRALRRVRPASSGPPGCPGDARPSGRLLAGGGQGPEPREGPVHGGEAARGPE

Cytochrome P450 2C9 = Cytochrome P450 2C9 (Homo sapiens, UniProt P11712)
Cytochrome P450 2C9, sequence (P11712 whole entry): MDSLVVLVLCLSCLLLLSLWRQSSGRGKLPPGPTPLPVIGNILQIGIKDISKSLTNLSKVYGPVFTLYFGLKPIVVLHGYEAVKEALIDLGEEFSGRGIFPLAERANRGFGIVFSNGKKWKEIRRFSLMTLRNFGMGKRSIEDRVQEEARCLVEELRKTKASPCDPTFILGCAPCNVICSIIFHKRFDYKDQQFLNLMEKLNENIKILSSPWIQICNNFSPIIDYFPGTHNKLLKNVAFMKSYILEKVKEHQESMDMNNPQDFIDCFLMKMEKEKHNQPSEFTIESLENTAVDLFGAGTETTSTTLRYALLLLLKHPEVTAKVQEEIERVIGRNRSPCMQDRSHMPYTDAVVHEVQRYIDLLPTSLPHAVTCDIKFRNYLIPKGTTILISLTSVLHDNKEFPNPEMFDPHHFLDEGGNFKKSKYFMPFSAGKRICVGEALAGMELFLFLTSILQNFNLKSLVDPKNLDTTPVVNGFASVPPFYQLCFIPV

cells = format: functional, cell-based; conditions: HEK-CNG
INS1 = assay: beta cell apoptosis inhibitors, cytokine rescue, dose response, luminescence, retest (AID 449756); format: functional, cell-based; conditions: Rattus norvegicus;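 further: cell death triggered by IL-1 beta plus TNF-alpha plus IFN-gamma mixture; protective hits raise ATP signal compared with cytokine alone wells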
[3] = molecular target: T4, Calpain-2 catalytic subunit (Sus scrofa, UniProt P43367); assay: pig calpain II inhibitor potency, dose response, biochemical, fluorogenic peptide substrate (AID 1420); format: functional
T4 sequence (P43367 whole entry): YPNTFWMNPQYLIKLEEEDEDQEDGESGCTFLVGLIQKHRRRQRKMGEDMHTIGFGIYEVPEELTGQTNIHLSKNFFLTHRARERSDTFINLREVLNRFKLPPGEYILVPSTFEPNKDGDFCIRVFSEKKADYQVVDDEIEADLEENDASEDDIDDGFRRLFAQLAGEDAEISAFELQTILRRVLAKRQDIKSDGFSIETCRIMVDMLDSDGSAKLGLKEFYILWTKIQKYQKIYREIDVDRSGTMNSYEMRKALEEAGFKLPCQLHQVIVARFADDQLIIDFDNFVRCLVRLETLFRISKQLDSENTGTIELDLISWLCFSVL

Vero = assay: cells; format: functional; conditions: Chlorocebus sabaeus
Paired box protein Pax-8 = Paired box protein Pax-8 (Homo sapiens, UniProt Q06710); assay: inhibitors of PAX8-driven TPO luciferase reporter, dose response, RMG-I cells, cherry-pick (AID 687027); format: functional, cell-based;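 further: luciferase reporter driven by Pax8 target thyroperoxidase promoter measured by SteadyGlo luminescence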
Paired box protein Pax-8, sequence (Q06710 whole entry): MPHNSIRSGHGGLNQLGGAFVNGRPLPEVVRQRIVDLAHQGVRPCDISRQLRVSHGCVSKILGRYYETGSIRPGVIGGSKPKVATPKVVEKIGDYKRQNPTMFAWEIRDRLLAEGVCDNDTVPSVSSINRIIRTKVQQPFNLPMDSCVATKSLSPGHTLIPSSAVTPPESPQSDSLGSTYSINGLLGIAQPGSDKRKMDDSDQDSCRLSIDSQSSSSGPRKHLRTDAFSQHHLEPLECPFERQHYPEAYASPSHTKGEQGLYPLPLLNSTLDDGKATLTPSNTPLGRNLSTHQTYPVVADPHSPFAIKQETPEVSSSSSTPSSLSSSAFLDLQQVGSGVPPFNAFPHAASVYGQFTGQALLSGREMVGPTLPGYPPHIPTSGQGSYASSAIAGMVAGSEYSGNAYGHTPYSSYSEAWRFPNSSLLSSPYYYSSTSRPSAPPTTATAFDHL

Caspase-6 = molecular target: T5, Caspase-6 (Homo sapiens, UniProt P55212); assay: human caspase-6 inhibitors, dose response, biochemical, VEID-R110 fluorescence, cherry-pick (AID 720632)
T5 sequence (P55212 whole entry): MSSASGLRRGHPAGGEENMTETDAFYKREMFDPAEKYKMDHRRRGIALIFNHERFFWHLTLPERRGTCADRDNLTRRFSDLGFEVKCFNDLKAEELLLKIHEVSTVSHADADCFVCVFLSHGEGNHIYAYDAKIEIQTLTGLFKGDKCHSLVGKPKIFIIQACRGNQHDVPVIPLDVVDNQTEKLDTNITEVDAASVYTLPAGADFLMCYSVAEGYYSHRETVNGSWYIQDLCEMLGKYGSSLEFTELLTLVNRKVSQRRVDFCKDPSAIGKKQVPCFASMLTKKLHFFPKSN

[4] = molecular target: Induced myeloid leukemia cell differentiation protein Mcl-1 (Homo sapiens, UniProt Q07820); format: functional
Induced myeloid leukemia cell differentiation protein Mcl-1, sequence (Q07820 whole entry): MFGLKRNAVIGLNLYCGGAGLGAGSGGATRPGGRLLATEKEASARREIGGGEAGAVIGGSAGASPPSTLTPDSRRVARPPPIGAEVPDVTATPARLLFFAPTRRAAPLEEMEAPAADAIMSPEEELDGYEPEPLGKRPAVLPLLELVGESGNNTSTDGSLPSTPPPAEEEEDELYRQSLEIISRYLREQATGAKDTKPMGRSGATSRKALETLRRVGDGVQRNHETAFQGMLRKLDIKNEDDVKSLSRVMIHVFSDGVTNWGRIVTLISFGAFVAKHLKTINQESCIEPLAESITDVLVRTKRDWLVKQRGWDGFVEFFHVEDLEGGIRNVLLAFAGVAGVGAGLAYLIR
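Wherever EC50 is given: target is galanin receptor GalR3 read with a cAMP biosensor in HEK293 cells.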

CCOc1ccc(NC(=O)CCn2cccc2)cc1
IC50 [1]: > 100 µM (active)

Cc1ccc(-c2[nH]nc3c2C(c2ccoc2)C(C#N)=C(N)O3)cc1C (configuration not stated)
IC50 (Leucine aminopeptidase): 3.65 µM (active)

CN(C)c1ccc(CNCCC(Cc2ccccc2)c2ccco2)cc1 (configuration not stated)
AC50 [2]: > 20 µM (inactive)

Nc1nn2c(O)c3c(nc2c1N=Nc1ccccc1)CCCC3
IC50 (Galanin receptor type 3): 3.7 µM (active)
AC50 (Cytochrome P450 2C9): 8.91 µM (inconclusive)
EC50 (cells): > 29.9 µM (inactive)

Cc1ccc(NC(=O)CCn2cnc3ccccc3c2=O)cc1Cl
IC50 [1]: > 100 µM (active)

CCOc1ccc(NC=C2C(=O)CC(C)(C)CC2=O)cc1
IC50 [1]: > 100 µM (active)

COc1ccc(-c2csc(NC(=O)c3ccccc3NS(=O)(=O)c3ccc(F)c(F)c3)n2)cc1
AC50 (INS1): 3.05 µM (active)
IC50 [3]: > 50 µM (not active)
CC50 (Vero): 2.03 µM (active)
IC50 (Galanin receptor type 3): 1.4 µM (active)
EC50 (cells): > 29.9 µM (inactive)
AC50 (Paired box protein Pax-8): 2.64 µM (active)

CSc1nc2ccc(NS(=O)(=O)c3cccc(Cl)c3Cl)cc2s1
IC50 [1]: > 100 µM (active)

O=c1nc2s/c(=C\c3ccc(-c4ccccc4[N+](=O)[O-])o3)c(=O)n2nc1-c1ccccc1
AC50 (Caspase-6): 18 µM (active)
IC50 [4]: 9.66 µM (active)
